Experiment [1] concerns the target human TRPA1 (Homo sapiens, UniProt O75762). In words: Calcium imaging of TRPA1 activation in human TRPA1 stably expressing HEK293 cells. Conditions: for TRPA1 activation caused by antiseptics and antiseptic aids: phenoxyethanol 20 to 30 mM, IPBC 0.03 to 0.1 mM, triclosan 0.1 to 0.3 mM, benzyl alcohol 20 to 30 mM, FIG. 3.
Description: (1) Preparation of Human TRPA1 Stably Expressing Cell Line
The human TRPA1 gene of which the full length is inserted into pENTR223.1 was purchased from Open Biosystems. The TRPA1 gene was sub-cloned into an expression vector pcDNA3.2-V5/DEST (Invitrogen) and transfected into HEK293 cells using Lipofectamine 2000 (Invitrogen).
(3) Evaluation of the Inhibitory Effect on TRPA1 Activation Caused by AITC
For experiment [2], the system named is human skin. In words: Sensory irritation property to antiseptic on human skin (discomfort score, sensitive women). In kind it is in vivo. To be noted: antiseptic solution (0.2% methylparaben + 0.35% phenoxyethanol) + 0.05% Compound 1 on face, versus antiseptic solution alone; maximum score, scale 0.0-3.0; FIG. 4. As for the experimental part: (1) Selection of Test Subjects
To evaluate the skin sensory irritation, 22 women (age 20 to 59) having high sensitivity (1% lactic acid-sensitive, low current perception threshold and sensitive skin conscious with medical history of allergic disease) were selected as the subjects.
(2) Evaluation of Sensory Irritation Property to Antiseptic
After washing the face, the subjects entered a constant temperature-humidity room (room temperature 20° C., humidity about 50%) and were acclimated for 20 minutes, followed by applying 300 ill of distilled water heated to 37° C. in one side of the face from the cheek to the nose. 1, 2.5, 5 and 8 minutes after the application, the degree (intensity) of unpleasant sensation (pain) reported in accordance with the following unpleasant sensation reference values was notated.
0.0; None or pleasant sensation
0.5; Slight discomfort barely detectable
1.0; Mild discomfort, detectable sensation but tolerable
1.5; Mild to moderate discomfort
2.0; Moderate discomfort, unpleasant feeling but tolerable
2.5; Moderate to severe discomfort
3.0; Severe discomfort, intense unpleasant feeling
The distilled water was wiped off 8 minutes later, 300 μl of an antiseptic solution (0.2% methylparaben (MP)+0.35% phenoxyethanol (Phe) aqueous solution) was applied to the same part to notate the degrees of unpleasant sensation in the same manner. […]

Experiment [3] is described as follows: Inhibitory effect on irritating odor (ammonia odor, panel evaluation). The class given is in vivo. Conditions: for ammonia odor (irritating odor) score, average: 7-stage scale 0 to 6. As for the experimental part:
Ammonia was volatilized and saturated by putting a cotton ball impregnated with a 28% ammonia water (20 μl) in a 50 ml syringe for 12 hours or more. The intensity of ammonia odor (irritating odor) was evaluated using a 7-stage scale (0 to 6). Comparative evaluation was carried out without sniffing the test perfume.
(2) Evaluation scale 0; No irritating odor, 1; very faint, 2: faint, 3; easily noticeable, 4; strong, 5; very strong, 6; extremely strong

The mark [4] stands for this setting: HEK293, read-out: Ratio for TRPA1 inhibition (%), 5.0 μM AITC, test material 100 μM.
The mark [5] stands for this setting: HEK293, read-out: Ratio for TRPA1 inhibition (%), 10 μM AITC, test material 100 μM.

Read-outs that look alike come from different tables or passages of the source.

Sequence of human TRPA1 (O75762 whole entry): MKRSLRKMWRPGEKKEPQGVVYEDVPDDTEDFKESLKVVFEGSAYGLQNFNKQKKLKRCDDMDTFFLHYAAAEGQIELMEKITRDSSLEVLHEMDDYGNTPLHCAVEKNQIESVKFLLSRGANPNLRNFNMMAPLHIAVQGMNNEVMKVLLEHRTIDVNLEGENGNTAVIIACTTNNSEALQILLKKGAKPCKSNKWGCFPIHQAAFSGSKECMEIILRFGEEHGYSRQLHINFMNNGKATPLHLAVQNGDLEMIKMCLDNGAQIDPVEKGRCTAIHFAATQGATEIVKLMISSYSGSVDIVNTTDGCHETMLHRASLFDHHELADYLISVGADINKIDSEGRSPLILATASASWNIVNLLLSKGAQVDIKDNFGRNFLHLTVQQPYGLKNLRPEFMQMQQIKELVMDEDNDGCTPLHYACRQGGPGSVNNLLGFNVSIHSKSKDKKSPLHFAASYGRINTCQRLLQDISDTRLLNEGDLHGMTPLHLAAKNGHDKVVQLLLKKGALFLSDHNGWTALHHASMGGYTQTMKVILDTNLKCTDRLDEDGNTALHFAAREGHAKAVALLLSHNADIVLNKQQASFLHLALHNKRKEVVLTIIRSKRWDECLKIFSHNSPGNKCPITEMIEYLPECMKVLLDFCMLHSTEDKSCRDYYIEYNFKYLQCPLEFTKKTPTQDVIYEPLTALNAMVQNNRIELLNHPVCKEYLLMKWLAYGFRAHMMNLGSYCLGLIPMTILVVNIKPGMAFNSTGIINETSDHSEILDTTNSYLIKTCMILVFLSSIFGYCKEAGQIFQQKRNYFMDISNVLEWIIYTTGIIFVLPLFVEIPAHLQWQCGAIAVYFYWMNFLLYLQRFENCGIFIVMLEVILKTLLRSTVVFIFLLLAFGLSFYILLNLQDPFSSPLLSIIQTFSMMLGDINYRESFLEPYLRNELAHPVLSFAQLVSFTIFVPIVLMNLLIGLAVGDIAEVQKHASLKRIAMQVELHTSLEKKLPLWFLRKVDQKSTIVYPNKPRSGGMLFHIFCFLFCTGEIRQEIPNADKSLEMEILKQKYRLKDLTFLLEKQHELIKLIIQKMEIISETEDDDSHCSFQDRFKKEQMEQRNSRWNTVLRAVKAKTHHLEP

The IC50 is the concentration needed to halve the response being measured. `CC/C(=C\C(CC)c1ccccc1)CO` (stereo not drawn) [Compound 7, (E)-2-ethyl-4-phenyl-2-hexen-1-ol]: the half-maximal inhibitory concentration (IC50) in experiment [1] worked out at 3.4 µM. For the same compound, the inhibition at 100 µM in experiment [1] (setting [4]) worked out at 103%; in experiment [1] (setting [5]), 102%.
`CCC(CC(C)CO)c1ccccc1` (stereo not drawn) [Compound 6, 2-methyl-4-phenyl-1-hexanol]: the inhibition at 100 µM was determined as 18.7% in experiment [1] (setting [4]) and 9.7% in experiment [1] (setting [5]).
Regarding `CC(CC(C)C(C)O)c1ccccc1` (stereo not drawn) [Compound 12, 3-methyl-5-phenyl-2-hexanol], the inhibition at 100 µM in experiment [1] (setting [4]) turned out to be 54.9%; in experiment [1] (setting [5]), 27.1%.
In the same order, the values of `CCC(C=C(C)CO)c1ccccc1` (stereo not drawn) [Compound 5, 2-methyl-4-phenyl-2-hexen-1-ol] are 83.4% and 27.6%.
For the compound `CC(CCCO)c1ccccc1` (stereo not drawn) [Comparative Compound 1, 4-phenyl-1-pentanol, reference compound], the inhibition at 100 µM in experiment [1] (setting [5]) is 0%.
Take `CC(CO)C(C)Cc1ccccc1` (stereo not drawn) [Compound 9, 2,3-dimethyl-4-phenyl-1-butanol]: the inhibition at 100 µM worked out at 89.5% in experiment [1] (setting [4]) and 51.7% in experiment [1] (setting [5]).
As for `OCc1ccccc1` [benzyl alcohol, reference compound], in experiment [1], the “TRPA1 activation caused by antiseptics and antiseptic aids” value is reported as “activate TRPA1 in a dose dependent manner”.
As for d-camphor [reference compound], the “Ratio for TRPA1 inhibition (%)” value in experiment [1] (5.0 μM AITC, test material 100 μM) is on record as 1.8%; in experiment [1] (5.0 μM AITC, test material 500 μM), 27.8%; in experiment [1] (10 μM AITC, test material 100 μM) it was 0.0%; in experiment [1] (10 μM AITC, test material 500 μM), 15.1%; in experiment [1] (30 μM AITC, test material 0.01%), 6.9%; in experiment [1] (30 μM AITC, test material 0.03%), 89.7%. Further, the “Ratio for TRPA1 inhibition (%)” value in experiment [1] (stimulant Benzyl alcohol 20 mM, test material 0.5 mM) is recorded as −0.89%; in experiment [1] (stimulant IPBC 0.03 mM, test material 0.5 mM), 32.40%; in experiment [1] (stimulant Phenoxyethanol 20 mM, test material 0.5 mM), 13.96%; in experiment [1] (stimulant Triclosan 0.1 mM, test material 0.5 mM), 27.45%.
For `CC(CO)CC(C)c1ccccc1` (stereo not drawn) [Compound 1, 2-methyl-4-phenyl-1-pentanol], the “discomfort (pain) score” value in experiment [2] was “reduced”. The “ammonia odor (irritating odor) score, average” value was 2 in experiment [3] (1 minute later); 2 in experiment [3] (2 minutes later); 2 in experiment [3] (5 minutes later); 3 in experiment [3] (6 minutes later); 3 in experiment [3] (10 minutes later); 1 in experiment [3] (Immediately after inhalation of test perfume, five panelists). Besides, the “time the ammonia odor reducing effect was maintained after the inhalation” value in experiment [3] (after 1 minute sniffing of test perfume) stood at 5 min.
Regarding `CC/C(=C/C(CC)c1ccccc1)CO` (stereo not drawn) [Compound 8, (Z)-2-ethyl-4-phenyl-2-hexen-1-ol], the IC50 in experiment [1] is 2 µM. Also, the inhibition at 100 µM was found to be 102% in experiment [1] (setting [4]) and 101% in experiment [1] (setting [5]).
As to `C/C(=C\C(C)c1ccccc1)CO` (stereo not drawn) [Compound 10, (E)-2-methyl-4-phenyl-2-penten-1-ol], the IC50 in experiment [1] was 32.5 µM. The results for the inhibition at 100 µM in experiment [1] (setting [4]) and in experiment [1] (setting [5]) were 92.9% and 31.8%, respectively.
On to `Oc1cc(Cl)ccc1Oc1ccc(Cl)cc1Cl` [triclosan, reference compound], for which the “TRPA1 activation caused by antiseptics and antiseptic aids” value in experiment [1] is on record as “activate TRPA1 in a dose dependent manner”.
Turning to `CC(CO)CCc1ccccc1` (stereo not drawn) [Compound 11, 2-methyl-4-phenyl-1-butanol], the inhibition at 100 µM in experiment [1] (setting [4]) stood at 19.5%; in experiment [1] (setting [5]), 3.9%.
The like results for `OCCCCc1ccccc1` [Comparative Compound 2, 4-phenyl-1-butanol, reference compound] were, in that order, 0% and 0.8%.

(Values after patent US9856196B2, “Agent for reduction of sensory irritation” (Kao Corporation, priority 2012, dated 2018).)
